From patent publication US7005139B2, “Compositions and methods for the targeted delivery of agents to treat liver cancer” (Hong Kong University of Science and Technology, priority 2001, dated 2006) come the findings set out here.

The subject of the assay is HepG2 tumors. The assay can be described thus: Anti-tumor efficacy in HepG2-tumor bearing nude mice. It counts as in vivo, nu/nu BALB/c nude mice. The note with it: s.c. HepG2 tumors, i.v. 1 mg/kg dox equivalents every other day from day 2, tumor volume, FIG. 4. The method, then: Nude mice were inoculated s.c. with 4×10^6 HepG2 cells on day 0. On day 2, groups of five mice were injected intravenously with 1 mg/kg dox equivalents of D, DL or DLG. The control group received injections of saline (S). Injections were carried out every other day. The tumor size was measured weekly and the volume calculated using the formula 0.52×L×W×H. Each point represents the mean volume from each group of 5 mice.
Nude mice were inoculated s.c. with 4×10^6 HepG2 cells on day 0. On day 2, groups of five mice were injected intravenously with 1 mg/kg dox equivalents of D, DL or DLG. The control group received injections of saline. Injections were carried out every other day. All mice were sacrificed on day 35. The tumors were removed and weighted. Each column represents the mean ±s.d. (n=5). *p<0.05 statistically significant difference as compared to control (student's t-test).
Nude mice (body weight 20–25 g; 6–8 weeks) were inoculated subcutaneously (s.c.) with a suspension of HepG2 cells (4×10^6/mouse) on Day 0. On Day 2, groups of five mice were injected intravenously with 1 mg/kg equivalents of D, DL or DLG. The Control group received injections of saline. Injections were carried out every other day. Tumor volume was continuously monitored using a Vernier caliper. Measurements were taken weekly and volumes were calculated according to the formula (L×W×H×0.52). […]

`COc1cccc2c1C(=O)c1c(O)c3c(c(O)c1C2=O)C[C@@](O)(C(=O)CO)C[C@@H]3O[C@H]1C[C@H](N)[C@H](O)[C@H](C)O1.Cl` [D, doxorubicin hydrochloride]: the tumor growth inhibition entry is listed as “about 40%”.
